According to patent US10287276B2, “Heteroaryl-1,2,4-triazole and heteroaryl-tetrazole compounds for controlling ectoparasites” (Elanco Tiergesundheit AG, priority 2016, dated 2019):

Tests used:
[1] = tested on: Rhipicephalus sanguineus (Dog Tick); assay: Activity in vitro against Rhipicephalus sanguineus (dog tick), Assay B, coated glass vials; conditions: contact with coated vials, assessment at 48 hours; for pest or weed control at 20 ppm: Rhipicephalus sanguineus, read-out: efficacy (EC50)
Method: Activity In Vitro Against Rhipicephalus sanguineus (Dog Tick)—Assay B
A solution of the test compounds is used to coat the inner wall of glass vials containing a filter paper on the bottom of each vial. A second filter paper is also coated and placed in the cap of the vial. Vials and caps are allowed to dry overnight. Each treated vial is infested with ticks. Contact of the ticks with residues is induced by holding the vials in a controlled environment and assessment is performed at 48 hours after application in comparison with untreated glass vials and solvent-treated glass vials.

[2] = tested on: Ctenocephalides Felis (Cat Flea); assay: Activity in vitro against Ctenocephalides felis (cat flea), Assay B; conditions: % mortality at 48 hours post infestation; for pest or weed control at 10 ppm: Ctenocephalides felis, at 10 ppm in bovine blood, read-out: efficacy (EC50)
Method: Activity In Vitro Against Ctenocephalides Felis (Cat Flea)—Assay B
Test compounds are added to organic bovine blood contained in an artificial feeding container. Compounds with known insecticidal activity are included to serve as positive controls. Newly emerged unfed adult fleas from a laboratory colony are aspirated into each vial. The test cages are maintained using the artificial feeding apparatus to allow ingestion of compound. Fleas are evaluated for % mortality at 48 hours post infestation. Fleas showing normal movement and/or jumping ability are considered viable and those showing no movement are scored as dead.

[3] = tested on: Lucilla Cuprina (Australian Sheep Blowfly); assay: Activity in vitro against Lucilla cuprina (Australian sheep blowfly), Assay B; set-up: species or system L. cuprina; conditions: larvae, percent mortality at 24 hours; for pest or weed control at 10 ppm: Lucilia cuprina, compound in bovine serum, read-out: efficacy (EC50)
Method: Activity In Vitro Against Lucilla Cuprina (Australian Sheep Blowfly)—Assay B
Compound formulated in bovine serum is dispensed into scintillation. A dental cotton roll is added to each vial to absorb the compound solution. L. cuprina larvae are added to each treatment vial. The vials are capped and held for 24 hours in an environmental chamber at appropriate temperature, humidity and light/dark cycles. Evaluations are only made at 24 hours because dead larvae after 24 hours may be cannibalized by the remaining live ones. Vials are examined for percent mortality.

Structure (SMILES) | pest or weed control at 20 ppm [1] [%] | pest or weed control at 10 ppm [2] [%] | pest or weed control at 10 ppm [3] [%] | EC50 [1] [ppm] | EC50 [2] [ppm] | EC50 [3] [ppm]
CC(NC(=O)c1cc(C(F)(F)F)cc(C(F)(F)F)c1)c1ncnn1-c1ncccn1 (stereo not drawn) [Example 63, N-[1-(2-Pyrimidin-2-yl-1,2,4-triazol-3-yl)ethyl]-3,5-bis(trifluoromethyl)benzamide] | > 50 | > 50 | > 50 | – | – | –
C[C@H](NC(=O)c1cc(C(F)(F)F)cc(C(F)(F)F)c1)c1ncnn1-c1ncc(F)cn1 [Example 69, N-[(1S)-1-[2-(5-Fluoropyrimidin-2-yl)-1,2,4-triazol-3-yl]ethyl]-3,5-bis(trifluoromethyl)benzamide] | > 50 | > 50 | > 50 | – | – | –
C#CCN(C(=O)c1cccc(C#N)c1)C(C)c1ncnn1-c1ncccn1 (stereo not drawn) [Example 54, 3-Cyano-N-prop-2-ynyl-N-[1-(2-pyrimidin-2-yl-1,2,4-triazol-3-yl)ethyl]benzamide] | > 50 | > 50 | – | – | – | –
C[C@H](NC(=O)c1cccc(C#N)c1)c1ncnn1-c1ncc(F)cn1 [Example 68, 3-Cyano-N-[(1S)-1-[2-(5-fluoropyrimidin-2-yl)-1,2,4-triazol-3-yl]ethyl]benzamide] | > 50 | > 50 | > 50 | – | – | –
CCN(C(=O)c1cc(C#N)cc(C(F)(F)F)c1)C(C)c1ncnn1-c1ncccn1 (stereo not drawn) [Example 59, 3-Cyano-N-ethyl-N-[1-(2-pyrimidin-2-yl-1,2,4-triazol-3-yl)ethyl]-5-(trifluoromethyl)benzamide] | > 50 | > 50 | > 50 | 14 | 1.6 | 0.77
C[C@@H](c1ncnn1-c1ncccn1)N(CC1CC1)C(=S)c1cc(C(F)(F)F)cc(C(F)(F)F)c1 [Example 70] | > 50 | > 50 | > 50 | – | – | –
CC(c1ncnn1-c1ncccn1)N(CC1CC1)C(=O)c1cc(C#N)cc(C(F)(F)F)c1 (stereo not drawn) [Example 50, 3-Cyano-N-(cyclopropylmethyl)-N-[1-(2-pyrimidin-2-yl-1,2,4-triazol-3-yl)ethyl]-5-(trifluoromethyl)benzamide] | > 50 | > 50 | > 50 | – | – | –
C#CCN(C(=O)c1cc(C#N)cc(C(F)(F)F)c1)C(C)c1ncnn1-c1ncccn1 (stereo not drawn) [Example 58, 3-Cyano-N-prop-2-ynyl-N-[1-(2-pyrimidin-2-yl-1,2,4-triazol-3-yl)ethyl]-5-(trifluoromethyl)benzamide] | > 50 | > 50 | > 50 | – | – | –
CCOC(OCC)c1nc(C(C)NC(=O)c2cc(C(F)(F)F)cc(C(F)(F)F)c2)n(-c2ncccn2)n1 (stereo not drawn) [Example 73, N-[1-[5-(Diethoxymethyl)-2-pyrimidin-2-yl-1,2,4-triazol-3-yl]ethyl]-3,5-bis(trifluoromethyl)benzamide] | > 50 | > 50 | – | – | – | –
Cc1nc(C(C)N(CC2CC2)C(=O)c2cc(C(F)(F)F)cc(C(F)(F)F)c2)n(-c2ncccn2)n1 (stereo not drawn) [Example 61, N-(Cyclopropylmethyl)-N-[1-(5-methyl-2-pyrimidin-2-yl-1,2,4-triazol-3-yl)ethyl]-3,5-bis(trifluoromethyl)benzamide] | > 50 | > 50 | > 50 | – | – | –
CC(c1ncnn1-c1ncccn1)N(C[Si](C)(C)C)C(=O)c1cc(C(F)(F)F)cc(C(F)(F)F)c1 (stereo not drawn) [Example 67, N-[1-(2-pyrimidin-2-yl-1,2,4-triazol-3-yl)ethyl]-3,5-bis(trifluoromethyl)-N-(trimethylsilylmethyl)benzamide] | > 50 | > 50 | > 50 | – | – | –
C[C@@H](c1ncnn1-c1ncccn1)N(C)C(=O)c1cc(C(F)(F)F)cc(C(F)(F)F)c1 [Example 75, N-Methyl-N-[(1S)-1-(2-pyrimidin-2-yl-1,2,4-triazol-3-yl)ethyl]-3,5-bis(trifluoromethyl)benzamide] | > 50 | > 50 | > 50 | – | – | –
CC(c1ncnn1-c1ncccn1)N(C)C(=O)c1cc(C(F)(F)F)cc(C(F)(F)F)c1 (stereo not drawn) [Example 65, N-Methyl-N-[1-(2-pyrimidin-2-yl-1,2,4-triazol-3-yl)ethyl]-3,5-bis(trifluoromethyl)benzamide] | > 50 | > 50 | > 50 | – | – | –
COC(=O)c1nc(C(C)NC(=O)c2cc(C(F)(F)F)cc(C(F)(F)F)c2)n(-c2ncccn2)n1 (stereo not drawn) [Example 74, Methyl 5-[1-[[3,5-bis(trifluoromethyl)benzoyl]amino]ethyl]-1-pyrimidin-2-yl-1,2,4-triazole-3-carboxylate] | > 50 | – | – | – | – | –
CC(c1ncnn1-c1ncccn1)N(CC1CC1)C(=O)c1cc(Br)cc(C(F)(F)F)c1 (stereo not drawn) [Example 62, 3-Bromo-N-(cyclopropylmethyl)-N-[1-(2-pyrimidin-2-yl-1,2,4-triazol-3-yl)ethyl]-5-(trifluoromethyl)benzamide] | > 50 | – | > 50 | – | – | –
CC(c1ncnn1-c1ncccn1)N(C)C(=O)c1cc(C#N)cc(C(F)(F)F)c1 (stereo not drawn) [Example 60, 3-Cyano-N-methyl-N-[1-(2-pyrimidin-2-yl-1,2,4-triazol-3-yl)ethyl]-5-(trifluoromethyl)benzamide] | > 50 | > 50 | > 50 | – | – | –
CC(c1ncnn1-c1ncccn1)N(C)C(=O)c1cccc(C#N)c1 (stereo not drawn) [Example 55, 3-Cyano-N-methyl-N-[1-(2-pyrimidin-2-yl-1,2,4-triazol-3-yl)ethyl]benzamide] | > 50 | > 50 | – | – | – | –
